What was measured:
[1] = Measurement of Log P values by HPLC on reversed phase columns (EEC directive 79/831 Annex V.A8); type: physicochemical; conditions: reversed phase HPLC column
How it was run: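 Log P derived from retention on reversed-phase columns (EEC directive 79/831 Annex V.A8), LC-UV, acetonitrile gradient 10% to 95% against water containing 0.1% formic acid, 0.001 M ammonium acetate, or 0.1% phosphoric acid; several values per method separated by "+".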

Alternaria brassicae = experiment: In vivo preventive test on Alternaria brassicae (leaf spot on radish or cabbage); conditions: 500 ppm of active ingredient, preventive spray on radish or cabbage, evaluated 3 to 4 days after inoculation, read-out: efficacy
How it was run: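 Protective spray on young radish or cabbage: actives in water diluted from DMSO/acetone/Tween 80, with solvent-only controls. Leaves were challenged after 24 h with a spore suspension, and plants were held at 100% RH, 20 °C for 3 to 4 days.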

Botrytis cinerea [2] = experiment: In vivo preventive test on Botrytis cinerea (grey mould); conditions: 500 ppm of active ingredient, preventive spray on gherkin or cabbage, evaluated 4 to 5 days after inoculation, read-out: efficacy
How it was run: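 Preventive spray on cabbage or gherkin seedlings, with compound formulated in DMSO/acetone/Tween 80 and water-diluted, preceded spore inoculation by 24 hours. Cabbage was held 4 to 5 days at 20° C., 100% relative humidity; gherkin 4 to 5 days at 17° C., 90% relative humidity.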

Sphaerotheca fuliginea = experiment: In vivo preventive test on Sphaerotheca fuliginea (powdery mildew on cucurbits); conditions: Podosphaera fuliginea, 192 h; 500 ppm of active ingredient; preventive spray on gherkin; evaluated 8 days after inoculation; read-out: efficacy
Method: B-4. in vivo preventive test on Sphaerotheca fuliginea (powdery mildew on cucurbits) [table] The active ingredients were made soluble and homogenized in a mixture of Dimethyl sulfoxide/Acetone/Tween® 80 and then diluted in water to the desired concentration. The young plants of gherkin were treated by spraying the active ingredient prepared as described above. Control plants were treated only with an aqueous solution of Acetone/Dimethyl sulfoxide/Tween® 80. After 24 hours, the plants were contaminated by spraying the leaves with an aqueous suspension of Sphaerotheca fuliginea spores. The contaminated gherkin plants were incubated for 8 days at 20° C. and at 70-80% relative humidity.

Alternaria alternata = Alternaria alternata in vitro cell test; type: cell-based; conditions: 120 h, 20 ppm of active ingredient, liquid culture, 5 days incubation, spectrometric measurement of mycelium growth, read-out: efficacy (inhibition of fungal growth)
How it was run: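 Spectrometric readout of mycelial growth after 5-day incubation gauged compound effects on spore germination and growth of A. alternata in liquid medium. Compounds were delivered in DMSO at ≤1% final. Absorbance was compared with untreated controls to give inhibition.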

[3] = test system: Colletotrichum lindemuthianum; experiment: B-8. Colletotrichum lindemuthianum in vitro cell test; type: cell-based; conditions: 144 h, 20 ppm of active ingredient, 6 days incubation, liquid culture, absorbance, read-out: efficacy (inhibition of fungal growth)
How it was run: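 Liquid-culture germination/growth test: compounds in ≤1% final DMSO were added to spore-containing medium. Fungal growth was quantified spectrophotometrically after 6 days of incubation and expressed as inhibition versus untreated controls.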

Botrytis cinerea [4] = experiment: B-11. Botrytis cinerea in vitro cell test; type: cell-based; conditions: 144 h, 20 ppm of active ingredient, 6 days incubation, liquid culture, absorbance, read-out: efficacy (inhibition of fungal growth)
How it was run: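 B. cinerea spores were grown in liquid culture with compound (DMSO ≤1% final). Mycelium growth was measured spectrometrically after 6 days, with inhibition taken as absorbance relative to untreated control wells.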

Pyrenophora teres = experiment: B-10. Pyrenophora teres in vitro cell test; type: cell-based; conditions: 144 h, 20 ppm of active ingredient, 6 days incubation, liquid culture, absorbance, read-out: efficacy (inhibition of fungal growth)
How it was run: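 Liquid-culture assay on a P. teres spore suspension with compounds added to the medium from DMSO solutions, final DMSO ≤1%. Mycelium growth read spectrometrically after 6 days. Inhibition calculated from absorbance against untreated control wells.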

[5] = method [a]: LC-UV, acidic range, 0.1% formic acid in water and acetonitrile as eluent

| Compound | chromatographic logP [1, 5] | chromatographic logP ([1]; method [b]: LC-UV, neutral range, 0.001 molar ammonium acetate solution in water and acetonitrile as eluent) | pest or weed control at 500 ppm (Alternaria brassicae) [%] | pest or weed control at 500 ppm (Botrytis cinerea [2]) [%] | pest or weed control at 500 ppm (Sphaerotheca fuliginea) [%] | inhibition at 20 ppm (Alternaria alternata) [%] | inhibition at 20 ppm [3] [%] | inhibition at 20 ppm (Botrytis cinerea [4]) [%] | inhibition at 20 ppm (Pyrenophora teres) [%] |
| --- | --- | --- | --- | --- | --- | --- | --- | --- | --- |
| Cc1ccc(CCNC(=O)c2c(Oc3cccc(C(F)(F)F)c3)nnc3ccc(F)cc23)c(C)c1 [I-006] | 4.46 |  | 90 to 100 | 90 to 100 | 90 to 100 | 90 to 100 | 90 to 100 | 90 to 100 |  |
| COc1ccc2nnc(Oc3cccc(C(F)(F)F)c3)c(C(=O)NCCc3ccc(C)cc3C)c2c1 [I-010] | 4.29 |  | 80 to 89 | 90 to 100 | 90 to 100 | 90 to 100 |  |  |  |
| O=C(NCC(F)(F)c1ccc(Cl)cc1)c1c(Oc2cccc(Cl)c2)nnc2ccccc12 [I-012] |  |  | 90 to 100 | 90 to 100 | 90 to 100 | 90 to 100 | 90 to 100 |  |  |
| Cc1ccc(C(F)(F)CNC(=O)c2c(Oc3cccc(C(F)(F)F)c3)nnc3c2CCOCC3)c(C)c1 [I-114, N-[2-(2,4-dimethylphenyl)-2,2-difluoro-ethyl]-3-[3-(trifluoro-methyl)phenoxy]-5,6,8,9-tetrahydrooxepino[4,5-c]pyridazine-4-carboxamide] | 3.58 |  | 70 to 79 | 90 to 100 | 90 to 100 | 90 to 100 | 90 to 100 |  |  |
| Cc1ccc(C(F)(F)CNC(=O)c2c(Oc3cccc(C(F)(F)F)c3)c(C)nc3ccccc23)c(C)c1 [I-185] | 4.59 |  | 70 to 79 |  | 90 to 100 | 80 to 89 |  |  | 90 to 100 |

More lines, main results first:

| chromatographic logP [1, 5] | chromatographic logP ([1]; method [b]: LC-UV, neutral range, 0.001 molar ammonium acetate solution in water and acetonitrile as eluent) | Compound | pest or weed control at 500 ppm (Alternaria brassicae) [%] | pest or weed control at 500 ppm (Botrytis cinerea [2]) [%] | pest or weed control at 500 ppm (Sphaerotheca fuliginea) [%] | inhibition at 20 ppm (Alternaria alternata) [%] | inhibition at 20 ppm [3] [%] | inhibition at 20 ppm (Botrytis cinerea [4]) [%] | inhibition at 20 ppm (Pyrenophora teres) [%] |
| --- | --- | --- | --- | --- | --- | --- | --- | --- | --- |
| 4.27 | 4.22 | Cc1ccc(C(F)(F)CNC(=O)c2c(Oc3cccc(C(F)(F)F)c3)nnc3ccccc23)c(C)c1 [I-008] | 80 to 89 | 90 to 100 | 90 to 100 | 90 to 100 | 80 to 89 |  |  |
| 4.58 |  | O=C(NCC(F)(F)c1ccc(Br)cc1Cl)c1c(Oc2cccc(C(F)(F)F)c2)nnc2ccccc12 [I-021] | 90 to 100 | 90 to 100 | 90 to 100 | 90 to 100 | 90 to 100 |  |  |
| 4.13 |  | O=C(NCC(F)(F)c1ccc(Cl)cc1)c1c(Oc2cccc(C(F)(F)F)c2)nnc2ccccc12 [I-023] | 90 to 100 | 90 to 100 | 90 to 100 | 90 to 100 | 90 to 100 |  |  |
| 3.87 |  | Cc1ccc(C(F)(F)CNC(=O)c2c(Oc3cncc(C(F)(F)F)c3)nnc3ccccc23)c(C)c1 [I-025] | 90 to 100 | 90 to 100 | 90 to 100 | 90 to 100 | 90 to 100 |  |  |
| 3.61 |  | O=C(NCC(F)(F)c1ccc(Cl)cc1)c1c(Oc2cncc(C(F)(F)F)c2)nnc2ccccc12 [I-026] | 90 to 100 | 90 to 100 | 90 to 100 | 90 to 100 | 90 to 100 |  |  |
| 4.08 |  | O=C(NCC(F)(F)c1ccc(Br)cc1Cl)c1c(Oc2cncc(C(F)(F)F)c2)nnc2ccccc12 [I-027] | 90 to 100 | 90 to 100 | 90 to 100 | 90 to 100 | 90 to 100 |  |  |
| 4.14 |  | O=C(NCC(F)(F)c1ccc(Br)cc1Cl)c1c(Oc2cccc(C(F)F)c2)nnc2ccccc12 [I-035] | 90 to 100 | 90 to 100 | 70 to 79 | 90 to 100 | 90 to 100 |  |  |

Reference: patent publication US20230192617A1, “AZABICYCLIC(THIO)AMIDES AS FUNGICIDAL COMPOUNDS” (Bayer CropScience Aktiengesellschaft, priority 2020, published 2023)
